Measured values as given in BigSolDB 2.1.

**Q.** For Cc1ncc([N+](=O)[O-])n1CCO, which solubility (mole fraction) (in transcutol, 298.15 K) is on record?
**A.** The solubility (mole fraction) was 0.0207.

**Q.** And the solubility (mole fraction) (in transcutol, 303.15 K)?
**A.** Its solubility (mole fraction) is 0.0227.

**Q.** What about the solubility (mole fraction) (in transcutol, 308.15 K) of the same compound?
**A.** Its solubility (mole fraction) is 0.0244.

**Q.** And the solubility (mole fraction) (in transcutol, 313.15 K)?
**A.** The solubility (mole fraction) was 0.0263.

**Q.** What about the solubility (mole fraction) (in transcutol, 318.15 K) of the same compound?
**A.** Its solubility (mole fraction) is 0.0283.

**Q.** And the solubility (mole fraction) (in transcutol, 323.15 K)?
**A.** The solubility (mole fraction) was 0.0303.

**Q.** What about the solubility (mole fraction) (in transcutol, 328.15 K) of the same compound?
**A.** Its solubility (mole fraction) is 0.033.

**Q.** And the solubility (mole fraction) (in transcutol, 333.15 K)?
**A.** The solubility (mole fraction) was 0.0361.

**Q.** And the solubility (mole fraction) (in water, 298.15 K)?
**A.** Its solubility (mole fraction) is 0.00111.

**Q.** What about the solubility (mole fraction) (in water, 303.15 K) of the same compound?
**A.** The solubility (mole fraction) was 0.00119.

**Q.** And the solubility (mole fraction) (in water, 308.15 K)?
**A.** The solubility (mole fraction) was 0.00128.

**Q.** What about the solubility (mole fraction) (in water, 313.15 K) of the same compound?
**A.** The solubility (mole fraction) was 0.00137.

**Q.** And the solubility (mole fraction) (in water, 318.15 K)?
**A.** The solubility (mole fraction) was 0.00147.

**Q.** What about the solubility (mole fraction) (in water, 323.15 K) of the same compound?
**A.** The solubility (mole fraction) was 0.00159.

**Q.** What about the solubility (mole fraction) (in water, 328.15 K) of the same compound?
**A.** Its solubility (mole fraction) is 0.0017.

**Q.** And the solubility (mole fraction) (in water, 333.15 K)?
**A.** Its solubility (mole fraction) is 0.00182.
